According to ChEMBL document CHEMBL4393679, “Structure-Guided Drug Design of 6-Substituted Adenosine Analogues as Potent Inhibitors of Mycobacterium tuberculosis Adenosine Kinase” (J Med Chem, 2019):

Assays:
Type in all cases: functional
[1] = system: Mycobacterium tuberculosis; test: Antimycobacterial activity against Mycobacterium tuberculosis H37Rv harboring Q172P mutant by microplate alamar blue assay
[2] = system: Mycobacterium tuberculosis; test: Antimycobacterial activity against Mycobacterium tuberculosis H37Rv harboring D251N mutant by microplate alamar blue assay
[3] = system: Mycobacterium tuberculosis; test: Antimycobacterial activity against Mycobacterium tuberculosis H37Rv harboring G262S mutant by microplate alamar blue assay

Measured: MIC

Nc1ncnc2c1c(I)cn2[C@@H]1O[C@H](CO)[C@@H](O)[C@H]1O [IODOTUBERCIDIN]
>100 µM: all assays above
